Where “and” joins values, the source holds several entries; their conditions need not be identical. Equal entries are not always repeated. Entries after “also recorded” stand apart in the source; their conditions may differ. Where two headings read alike, the source gives them in different places.
Columns and labels:
[1] = 60 mg CV-10155 orally once per day for seven days in humans (MAD): PK and adverse events
[2] = target: α4β3δ GABAA receptors (extra synaptic) (Homo sapiens, UniProt P28472+P48169); conditions: compositions containing isomerically pure compound; described in U.S. Pat. No. 10,857,163; cited from earlier work
[3] = human, in vivo, 60 mg
[4] = humans, single oral dose, range of 5-135 mg
[5] = cited from earlier work
Forced swim test = Forced swim test - Depression; design: species or system rodent; conditions: in vivo
[6] = 60 mg, evening, fed state, N = 9
[7] = 60 mg, morning, fasted state, N = 9
[8] = 10 mg in HPMC-AS formulation PO, fed cohort, individual dogs #9-12 and mean (r14)
[9] = 10 mg in HPMC-AS formulation PO, pentagastrin/fasted cohort, individual dogs #1-4 and mean (r14)
[10] = 30 mg in HPMC-AS formulation PO, pentagastrin/fasted cohort, individual dogs #13-16 and mean (r14)

α4β3δ GABAA receptors (extra synaptic), sequence (P48169 36-554): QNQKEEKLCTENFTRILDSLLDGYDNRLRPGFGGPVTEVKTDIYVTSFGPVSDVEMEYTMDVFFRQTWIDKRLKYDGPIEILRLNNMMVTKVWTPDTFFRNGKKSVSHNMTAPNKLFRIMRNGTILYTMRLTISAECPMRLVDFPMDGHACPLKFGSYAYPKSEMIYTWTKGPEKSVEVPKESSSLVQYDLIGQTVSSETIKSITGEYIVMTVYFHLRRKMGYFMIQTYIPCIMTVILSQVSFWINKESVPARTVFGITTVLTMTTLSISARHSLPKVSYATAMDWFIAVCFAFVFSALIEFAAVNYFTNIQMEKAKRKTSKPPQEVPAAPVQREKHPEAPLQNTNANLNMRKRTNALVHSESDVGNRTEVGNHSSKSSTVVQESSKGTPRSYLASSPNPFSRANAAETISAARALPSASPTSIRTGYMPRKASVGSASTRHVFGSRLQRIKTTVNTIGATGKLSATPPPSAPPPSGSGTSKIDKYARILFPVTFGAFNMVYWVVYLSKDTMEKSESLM
α4β3δ GABAA receptors (extra synaptic), sequence (P28472 26-473): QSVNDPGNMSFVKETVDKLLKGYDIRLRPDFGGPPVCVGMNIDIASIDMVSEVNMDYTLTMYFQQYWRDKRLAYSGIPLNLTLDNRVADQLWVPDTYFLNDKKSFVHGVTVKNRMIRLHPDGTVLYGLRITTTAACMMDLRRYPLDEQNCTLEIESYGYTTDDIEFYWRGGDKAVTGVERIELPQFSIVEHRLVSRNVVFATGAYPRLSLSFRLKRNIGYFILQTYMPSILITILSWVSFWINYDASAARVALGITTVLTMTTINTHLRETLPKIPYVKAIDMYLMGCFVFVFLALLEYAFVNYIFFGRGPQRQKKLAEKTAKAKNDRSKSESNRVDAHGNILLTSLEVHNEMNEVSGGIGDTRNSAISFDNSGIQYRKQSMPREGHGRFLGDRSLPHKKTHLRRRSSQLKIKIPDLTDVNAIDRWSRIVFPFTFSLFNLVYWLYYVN
α4β3δ GABAA receptors (extra synaptic), sequence (O14764 17-452 partner limits assumed): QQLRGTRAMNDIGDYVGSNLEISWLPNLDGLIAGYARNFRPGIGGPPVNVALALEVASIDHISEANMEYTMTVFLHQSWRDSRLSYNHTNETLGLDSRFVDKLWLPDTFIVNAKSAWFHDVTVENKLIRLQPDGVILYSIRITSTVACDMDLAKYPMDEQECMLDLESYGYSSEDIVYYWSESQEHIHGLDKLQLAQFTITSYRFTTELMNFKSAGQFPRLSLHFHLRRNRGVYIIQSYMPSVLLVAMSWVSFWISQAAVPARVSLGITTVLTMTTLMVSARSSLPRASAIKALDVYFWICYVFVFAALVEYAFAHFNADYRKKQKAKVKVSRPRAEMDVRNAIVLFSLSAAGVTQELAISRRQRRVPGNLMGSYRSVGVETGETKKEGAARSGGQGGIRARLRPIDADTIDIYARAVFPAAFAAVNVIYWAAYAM

C[C@@]1(O)CC[C@@]2(C)[C@@H](CC[C@@H]3[C@@H]2CC[C@]2(C)[C@@H](C(=O)Cn4cc(C#N)cn4)CC[C@@H]32)C1 [CV-10155, 1-[2-[(3R,5S,8R,9S,10S,13S,14S,17S)-3-hydroxy-3,10,13-trimethyl-1,2,4,5,6,7,8,9,11,12,14,15,16,17-tetradecahydrocyclopenta[a]phenanthren-17-yl]-2-oxoethyl]pyrazole-4-carbonitrile]
AE Back pain, # [1, 6]: 1 | AE Bloating, # [1, 6]: 1 | AE Dizziness, # [1, 6]: 1 | AE Headache, # [1, 6]: 2 | AE Sleepiness, # ([1]; 60 mg, evening, fed state, N = 9 (two separate table lines)): 1 | AE Dizziness, # [1, 7]: 1 | AE Feeling sleepy, # [1, 7]: 1 | AE Feeling tired, # [1, 7]: 2 | AE Headache, # [1, 7]: 2 | AE Sleepiness, # [1, 7]: 9 | AE Tiredness, # [1, 7]: 3 | tolerability profile compared to PRAX-114 and Sage-217 ([1]; humans, 60 mg dosed in the evening): favorable tolerability profile compared to PRAX-114 | exposure levels compared with 30 mg doses of Sage-217 ([1]; humans, 60 mg doses): higher exposure levels | AE ([1]; humans, CV-10155 in the evening in a fed state, individual subjects): Headache; also recorded: Somnolence; also recorded: Back pain; also recorded: Abdominal distension; also recorded: Dizziness | Severity ([1]; humans, evening, fed state, per AE of the same table row): Moderate and Mild | adverse effects interfering with sleeping ([1]; humans, oral, evening, fed subjects): does not produce adverse effects that interfere with sleeping | AUCInf [8]: 2440 ng·h/mL | AUCInf/D [8]: 5602 kg·ng·h/mL/mg and 2929 kg·ng·h/mL/mg and 2273 kg·ng·h/mL/mg and 4084 kg·ng·h/mL/mg | T1/2 [8]: 12.5 h | Tmax [8]: 1.13 h | AUCInf [9]: 2612 ng·h/mL | AUCInf/D [9]: 2762 kg·ng·h/mL/mg and 2441 kg·ng·h/mL/mg and 3314 kg·ng·h/mL/mg and 2821 kg·ng·h/mL/mg | Tmax [9]: 1.50 h | AUCInf/D [10]: 4995 kg·ng·h/mL/mg and 3157 kg·ng·h/mL/mg and 1572 kg·ng·h/mL/mg and 2982 kg·ng·h/mL/mg | T1/2 [10]: 12.3 h | preferential potentiation of α4β3δ as compared to α1β2γ2 GABAA receptors [2]: preferentially potentiate α4β3δ GABAA receptors | Racc Cmax [3]: 1.78 | dose-limiting adverse events [4]: No dose-limiting adverse events

C[C@@]1(O)CC[C@H]2[C@H](CC[C@@H]3[C@@H]2CC[C@]2(C)[C@@H](C(=O)Cn4cc(C#N)cn4)CC[C@@H]32)C1 [Sage-217]
Any AE, (%) ([5]; 20 mg (n-188)): 50.0% | Diarrhea, (%) ([5]; 20 mg (n-188)): 5.9% | Dizziness, (%) ([5]; 20 mg (n-188)): 7.4% | Fatigue, (%) ([5]; 20 mg (n-188)): 1.6% | Headache, (%) ([5]; 20 mg (n-188)): 11.2% | Nausea, (%) ([5]; 20 mg (n-188)): 5.3% | Sedation, (%) ([5]; 20 mg (n-188)): 5.9% | Somnolence, (%) ([5]; 20 mg (n-188)): 5.9% | Any AE, (%) ([5]; 30 mg (n-192)): 54.2% | Diarrhea, (%) ([5]; 30 mg (n-192)): 6.3% | Dizziness, (%) ([5]; 30 mg (n-192)): 5.7% | Fatigue, (%) ([5]; 30 mg (n-192)): 6.8% | Headache, (%) ([5]; 30 mg (n-192)): 6.3% | Nausea, (%) ([5]; 30 mg (n-192)): 3.6% | Sedation, (%) ([5]; 30 mg (n-192)): 4.7% | Somnolence, (%) ([5]; 30 mg (n-192)): 6.8% | Doses tested in Forced swim test - Depression (* significantly efficacious dose) (Forced swim test): 1 - 3* mg/kg

From patent publication US20240238313A1, “DOSING OF CV-10155 IN THE EVENING OR PRIOR TO SLEEP TO TREAT GABAA DISORDERS” (priority 2021, published 2024)
